Columns and labels:
[1] = tested on: Scedosporium prolificans IHEM21157; experiment: Antifungal activity in vitro (resazurin susceptibility screen), Inf. I; format: cell-based; details: Lomentospora prolificans, 37 °C, 48 hours, resa time 17 hours
Method in brief: (§1)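 RPMI-1640/2% glucose/MOPS pH 7.0; 10^3 cfu per well; top conc 64 μM, 2- or 4-fold dilutions from DMSO. Yeasts 24 h 37° C, dermatophytes ≥1 wk 27° C. Resazurin 0.005% added, fluorescence ex 550/em 590 nm vs untreated growth and medium-only controls.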

[2] = tested on: Mucor circinelloides IHEM21105; experiment: Antifungal activity in vitro (resazurin susceptibility screen), Inf. L; format: cell-based; details: 27 °C, 48 hours, resa time 17 hours
Method in brief: as §1

[3] = tested on: Microsporum canis (strain B68128); experiment: Test D.4.1: activity against M. canis in guinea-pigs after oral treatment for 7 consecutive days; format: in vivo; set-up: key to semi-quantitative lesion score (mean): lesion score 0–3.5 by severity and size of lesion
Method in brief: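 Female Duncan-Hartley guinea pigs, scarified depilated dorsum inoculated with 10^6 cfu M. canis spores in honey-water. Compounds in methocel 0.5%/Tween 80 vehicle given by oral gavage once daily for 7 days, starting ~2 h pre-infection; itraconazole reference. Lesions scored semi-quantitatively (0–3.5) on days 3–20 post-infection; mean scores.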

[4] = tested on: Candida parapsilosis B66126; experiment: Antifungal activity in vitro (resazurin susceptibility screen), Inf. D; format: cell-based; details: Lodderomyces parapsilosis, B66126, Candida parapsilosis B66126; 37 °C, 24 hours, resa time 4 hours
Method in brief: as §1

[5] = tested on: Sporothrix schenkii B62482; experiment: Antifungal activity in vitro (resazurin susceptibility screen), Inf. A; format: cell-based; details: Sporothrix, B62482, Sporothrix schenkii B62482; 27 °C, 4 days, resa time 24 hours
Method in brief: as §1

[6] = tested on: Trichophyton rubrum B68183; experiment: Antifungal activity in vitro (resazurin susceptibility screen), Inf. C; format: cell-based; details: Trichophyton rubrum, B68183, Trichophyton rubrum B68183; 27 °C, 7 days, resa time 24 hours
Method in brief: as §1

[7] = tested on: Trichophyton mentagrophytes B70554; experiment: Antifungal activity in vitro (resazurin susceptibility screen), Inf. G; format: cell-based; details: Trichophyton mentagrophytes, B70554, Trichophyton mentagrophytes B70554; 27 °C, 7 days, resa time 24 hours
Method in brief: as §1

IC50 [1]: 148 nM | IC50 [2]: > 64600 nM | IC50 [4]: 3090 nM | IC50 [5]: 12000 nM | IC50 [6]: 234 nM | IC50 [7]: 891 nM
SMILES: CC(F)(F)c1ccc(C2=NCc3c(Cl)cccc3-n3cccc32)cc1 [Compound 4, 7-chloro-4-[4-(1,1-difluoroethyl)phenyl]-6H-pyrrolo[1,2-a][1,4]benzodiazepine]
semi-quantitative lesion score (mean) ([3]; oral 5 mg/kg once daily for 7 days, 3 DPI): 0 | semi-quantitative lesion score (mean) ([3]; oral 5 mg/kg once daily for 7 days, 5 DPI): 0.67 | semi-quantitative lesion score (mean) ([3]; oral 5 mg/kg once daily for 7 days, 7 DPI): 1.50 | semi-quantitative lesion score (mean) ([3]; oral 5 mg/kg once daily for 7 days, 10 DPI): 2.00 | semi-quantitative lesion score (mean) ([3]; oral 5 mg/kg once daily for 7 days, 12 DPI): 2.17 | semi-quantitative lesion score (mean) ([3]; oral 5 mg/kg once daily for 7 days, 14 DPI): 1.83 | semi-quantitative lesion score (mean) ([3]; oral 5 mg/kg once daily for 7 days, 17 DPI): 1.33 | semi-quantitative lesion score (mean) ([3]; oral 5 mg/kg once daily for 7 days, 20 DPI): 1.17 | activity compared with the terbinafine group (G2, 10 mg/kg) ([3]; oral 10 mg/kg once daily for 7 days): comparable to G2 | semi-quantitative lesion score (mean) ([3]; oral 10 mg/kg once daily for 7 days, 3 DPI): 0 | semi-quantitative lesion score (mean) ([3]; oral 10 mg/kg once daily for 7 days, 5 DPI): 0 | semi-quantitative lesion score (mean) ([3]; oral 10 mg/kg once daily for 7 days, 7 DPI): 0.33 | semi-quantitative lesion score (mean) ([3]; oral 10 mg/kg once daily for 7 days, 10 DPI): 1.00 | semi-quantitative lesion score (mean) ([3]; oral 10 mg/kg once daily for 7 days, 12 DPI): 1.50 | semi-quantitative lesion score (mean) ([3]; oral 10 mg/kg once daily for 7 days, 14 DPI): 1.50 | semi-quantitative lesion score (mean) ([3]; oral 10 mg/kg once daily for 7 days, 17 DPI): 0.50 | semi-quantitative lesion score (mean) ([3]; oral 10 mg/kg once daily for 7 days, 20 DPI): 0.33 | activity compared with the terbinafine group (G2, 10 mg/kg) ([3]; oral 40 mg/kg once daily for 7 days): remarkably more active than the terbinafine group | semi-quantitative lesion score (mean) ([3]; oral 40 mg/kg once daily for 7 days, 3 DPI): 0 | semi-quantitative lesion score (mean) ([3]; oral 40 mg/kg once daily for 7 days, 5 DPI): 0.17 | semi-quantitative lesion score (mean) ([3]; oral 40 mg/kg once daily for 7 days, 7 DPI): 0.17 | semi-quantitative lesion score (mean) ([3]; oral 40 mg/kg once daily for 7 days, 10 DPI): 0.17 | semi-quantitative lesion score (mean) ([3]; oral 40 mg/kg once daily for 7 days, 12 DPI): 0.17 | semi-quantitative lesion score (mean) ([3]; oral 40 mg/kg once daily for 7 days, 14 DPI): 0 | semi-quantitative lesion score (mean) ([3]; oral 40 mg/kg once daily for 7 days, 17 DPI): 0.17 | semi-quantitative lesion score (mean) ([3]; oral 40 mg/kg once daily for 7 days, 20 DPI): 0.17

— US9637490B2, “Antifungal 5,6-dihydro-4-[(difluoroethyl)phenyl]-4H-pyrrolo[1,2-α][1,4]benzodiazepine and 4-(difluoroethyl)phenyl-6H-pyrrolo[1,2-α][1,4]benzodiazepine derivatives” (Janssen Pharmaceutica NV, priority 2010, dated 2017)
